# From patent US20260256792A1, “TREATMENT OF CHRONIC SPONTANEOUS URTICARIA BY ADMINISTERING (R)-2-[3-[4-AMINO-3-(2-FLUORO-4-PHENOXY-PHENYL)PYRAZOLO[3,4-D]PYRIMIDIN-1-YL]PIPERIDINE-1-CARBONYL]-4-METHYL-4-[4-(OXETAN-3-YL)PIPERAZIN-1-YL]PENT-2-ENENITRILE” (priority 2023, published 2026)
# Test system: moderate-to-severe chronic spontaneous urticaria (CSU)
# Assay: Phase 2 CSU study: hives severity score over 7 days (HSS7)
# Assay type: in vivo, human
# Parameters: key to HSS7 Change from baseline, Median / HSS7, Median / HSS7, Max / HSS7 Change from baseline, Q1 / HSS7 Change from baseline, Q3 / HSS7 Change from baseline, Max: 7-day sum of daily hive scores, each 0 = none to 3 = >50 hives
# Source text: The study comprises a 12 week, randomized, double-blind, placebo-controlled, multi-center, dose-ranging efficacy and safety phase, followed by a 40 week open label extension (OLE) phase (see FIG. 1).
# The study consists of three phases and an optional OLE phase.
# The UAS is a validated PRO measure. The daily UAS is the sum of the daily Hive Severity Score (HSS, ranging from 0=None to 3=more than 50 hives) and the daily Itch Severity Score (ISS, ranging from 0=None to 3=intense), the 2 key urticaria signs and symptoms which are wheals and itch. The daily UAS scores range from 0 to 6 point/day. Daily UAS scores are summed over 7-day period to create the UAS7, ranging from 0 to 42, and are composed of the HSS7 and ISS7 components. […] Patients were to complete the UAS using the e-diary. The e-diary was to be used once daily on the same time of each day recording of participant's answers to the urticaria activity score over 7 days (UAS7) questionnaire. For participants who entered the OLE phase, their answers to the UAS7 questionnaire were also to be collected from Week 20 to Week24 and from Week 48 to Week 52.
# The following secondary endpoints were to be analyzed using the same approach as for the primary endpoint: • Change from baseline in UAS7 at Week 4 • Change from baseline in UAS7 at Week 12 (for US and US reference countries) • Change from baseline in ISS7 at Week 12 (except US and US reference countries) • Change from baseline in HSS7 at Week 12
# [1] = 400 mg QPM, Week 10, ITT Population
# [2] = 400 mg QPM, Week 11, ITT Population
# [3] = 400 mg QPM, Week 12, ITT population
# [4] = 400 mg QPM, Week 12, Omalizumab-Naïve Population
# [5] = 400 mg TID, Omalizumab-Naïve Population, last block under Week 12, double-blind period, WOCF imputation
# [6] = 400 mg TID, Week 1, ITT Population
# [7] = 400 mg TID, Week 1, Omalizumab-Naïve Population
# [8] = 400 mg TID, Week 2, ITT Population
# [9] = 400 mg TID, Week 2, Omalizumab-Naïve Population
# [10] = 400 mg TID, Week 3, ITT Population
# [11] = 400 mg TID, Week 3, Omalizumab-Naïve Population
# [12] = 400 mg TID, Week 4, ITT population
# [13] = 400 mg TID, Week 4, Omalizumab-Naïve Population
# [14] = 400 mg TID, Week 5, ITT Population
# [15] = 400 mg TID, Week 5, Omalizumab-Naïve Population
# [16] = 400 mg TID, Week 6, ITT Population
# [17] = 400 mg TID, Week 6, Omalizumab-Naïve Population
# [18] = 400 mg TID, Week 7, ITT Population
# [19] = 400 mg TID, Week 7, Omalizumab-Naïve Population
# [20] = 400 mg TID, Week 8, ITT population
# [21] = 400 mg TID, Week 8, Omalizumab-Naïve Population
compound,measurement,setting,value
"CC(C)(C=C(C#N)C(=O)N1CCC[C@@H](n2nc(-c3ccc(Oc4ccccc4)cc3F)c3c(N)ncnc32)C1)N1CCN(C2COC2)CC1 [rilzabrutinib, (R)-2-[3-[4-amino-3-(2-fluoro-4-phenoxy-phenyl)pyrazolo[3,4-d]pyrimidin-1-yl]piperidine-1-carbonyl]-4-methyl-4-[4-(oxetan-3-yl)piperazin-1-yl]pent-2-enenitrile]",HSS7 % Change difference for rilzabrutinib vs.placebo LS Mean (95% CI),[1],−6.70 %
same,HSS7 % Change from baseline LS Mean (SE),[1],−34.70 (6.79) %
same,HSS7 Change difference for rilzabrutinib vs.placebo LS Mean (95% CI),[1],"−0.56 (−3.19, 2.07)"
same,HSS7 Change from baseline LS Mean (SE),[1],−5.16 (0.98)
same,HSS7 Postbaseline Mean (SD),[1],9.82 (5.85)
same,HSS7 Postbaseline Mean (SD),"400 mg QPM, Week 10, Omalizumab-Naïve Population",9.88 (5.93)
same,HSS7 Postbaseline Mean (SD),"400 mg QPM, Week 10, Omalizumab-Naïve Population with Outlier Removed from Analysis",9.88 (5.93)
same,HSS7 % Change difference for rilzabrutinib vs.placebo LS Mean (95% CI),[2],−8.01 %
same,HSS7 % Change from baseline LS Mean (SE),[2],−34.56 (7.07) %
same,HSS7 Change difference for rilzabrutinib vs.placebo LS Mean (95% CI),[2],"−0.43 (−3.08, 2.22)"
same,HSS7 Change from baseline LS Mean (SE),[2],−4.97 (0.99)
same,HSS7 Postbaseline Mean (SD),[2],10.15 (6.09)
same,HSS7 Postbaseline Mean (SD),"400 mg QPM, Week 11, Omalizumab-Naïve Population",10.18 (6.18)
same,HSS7 Postbaseline Mean (SD),"400 mg QPM, Week 11, Omalizumab-Naïve Population with Outlier Removed from Analysis",10.18 (6.18)
same,HSS7 % Change difference for rilzabrutinib vs.placebo LS Mean (95% CI),[3],−5.74 %
same,HSS7 % Change from baseline LS Mean (SE),[3],−33.48 (7.28) %
same,HSS7 Change difference for rilzabrutinib vs.placebo LS Mean (95% CI),[3],"0.14 (−2.62, 2.91)"
same,HSS7 Change from baseline LS Mean (SE),[3],−4.75 (1.03)
same,HSS7 Change difference for rilzabrutinib vs.placebo LS Mean (95% CI),[4],"−0.09 (−2.92, 2.75)"
same,HSS7 Change from baseline LS Mean (SE),[4],−4.49 (1.04)
same,median reduction in HSS7 at Week 12,"400 mg TID, ITT population",−8.31 points
same,"HSS7, Max",[5],16.0
same,"HSS7, Min",[5],2.0
same,"HSS7 Change from baseline, Max",[5],0.0
same,"HSS7 Change from baseline, Mean (SD)",[5],−5.20 (3.11)
same,"HSS7 Change from baseline, Median",[5],−6.00
same,"HSS7 Change from baseline, Min",[5],−8.0
same,"HSS7 Change from baseline, Q1",[5],−7.00
same,"HSS7 Change from baseline, Q3",[5],−5.00
same,"HSS7 Percent change from baseline, Max",[5],0.0%
same,"HSS7 Percent change from baseline, Mean (SD)",[5],−38.89 (26.61) percent
same,"HSS7 Percent change from baseline, Median",[5],−44.44%
same,"HSS7 Percent change from baseline, Min",[5],−71.4%
same,"HSS7 Percent change from baseline, Q1",[5],−50.00%
same,"HSS7 Percent change from baseline, Q3",[5],−28.57%
same,HSS7 % Change difference for rilzabrutinib vs.placebo LS Mean (95% CI),[6],−30.65 %
same,HSS7 % Change from baseline LS Mean (SE),[6],−39.34 (5.49) %
same,HSS7 Change from baseline LS Mean (SE),[6],−6.09 (0.74)
same,HSS7 Postbaseline Mean (SD),[6],7.76 (4.83)
same,HSS7 % Change difference for rilzabrutinib vs.placebo LS Mean (95% CI),[7],−27.41 %
same,HSS7 % Change from baseline LS Mean (SE),[7],−34.85 (6.00) %
same,HSS7 Change from baseline LS Mean (SE),[7],−5.32 (0.79)
same,HSS7 Postbaseline Mean (SD),[7],8.26 (4.91)
same,HSS7 Postbaseline Mean (SD),"400 mg TID, Week 1, Omalizumab-Naïve Population with Outlier Removed from Analysis",8.50 (4.76)
same,HSS7 % Change difference for rilzabrutinib vs.placebo LS Mean (95% CI),[8],−30.93 %
same,HSS7 % Change from baseline LS Mean (SE),[8],−47.49 (5.64) %
same,HSS7 Change difference for rilzabrutinib vs.placebo LS Mean (95% CI),[8],"−4.24 (−6.33, −2.15)"
same,HSS7 Change from baseline LS Mean (SE),[8],−7.16 (0.77)
same,HSS7 Postbaseline Mean (SD),[8],6.61 (5.06)
same,HSS7 % Change difference for rilzabrutinib vs.placebo LS Mean (95% CI),[9],−27.36 %
same,HSS7 % Change from baseline LS Mean (SE),[9],−42.63 (6.08) %
same,HSS7 Postbaseline Mean (SD),[9],7.25 (5.05)
same,HSS7 Postbaseline Mean (SD),"400 mg TID, Week 2, Omalizumab-Naïve Population with Outlier Removed from Analysis",7.44 (5.01)
same,HSS7 % Change difference for rilzabrutinib vs.placebo LS Mean (95% CI),[10],−29.56 %
same,HSS7 % Change from baseline LS Mean (SE),[10],−48.71 (5.82) %
same,HSS7 Change difference for rilzabrutinib vs.placebo LS Mean (95% CI),[10],"−3.79 (−5.97, −1.61)"
same,HSS7 Change from baseline LS Mean (SE),[10],−7.29 (0.81)
same,HSS7 Postbaseline Mean (SD),[10],6.49 (4.72)
same,HSS7 % Change difference for rilzabrutinib vs.placebo LS Mean (95% CI),[11],−27.37 %
same,HSS7 % Change from baseline LS Mean (SE),[11],−45.07 (6.36) %
same,HSS7 Postbaseline Mean (SD),[11],7.03 (4.82)
same,HSS7 Postbaseline Mean (SD),"400 mg TID, Week 3, Omalizumab-Naïve Population with Outlier Removed from Analysis",7.03 (4.89)
same,HSS7 % Change difference for rilzabrutinib vs.placebo LS Mean (95% CI),[12],−29.20 %
same,HSS7 % Change from baseline LS Mean (SE),[12],−47.90 (5.95) %
same,HSS7 Change difference for rilzabrutinib vs.placebo LS Mean (95% CI),[12],"−3.53 (−5.74, −1.31)"
same,HSS7 Change from baseline LS Mean (SE),[12],−6.98 (0.82)
same,HSS7 Postbaseline Mean (SD),[12],6.39 (4.92)
same,HSS7 % Change difference for rilzabrutinib vs.placebo LS Mean (95% CI),[13],−28.82 %
same,HSS7 % Change from baseline LS Mean (SE),[13],−44.69 (6.50) %
same,HSS7 Postbaseline Mean (SD),[13],6.85 (4.96)
same,HSS7 Postbaseline Mean (SD),"400 mg TID, Week 4, Omalizumab-Naïve Population with Outlier Removed from Analysis",6.85 (4.96)
same,HSS7 % Change difference for rilzabrutinib vs.placebo LS Mean (95% CI),[14],−23.13 %
same,HSS7 % Change from baseline LS Mean (SE),[14],−52.29 (5.80) %
same,HSS7 Change difference for rilzabrutinib vs.placebo LS Mean (95% CI),[14],"−3.09 (−5.36, −0.81)"
same,HSS7 Change from baseline LS Mean (SE),[14],−7.73 (0.84)
same,HSS7 Postbaseline Mean (SD),[14],6.02 (5.11)
same,HSS7 % Change difference for rilzabrutinib vs.placebo LS Mean (95% CI),[15],−18.86 %
same,HSS7 % Change from baseline LS Mean (SE),[15],−49.42 (6.23) %
same,HSS7 Postbaseline Mean (SD),[15],6.49 (5.14)
same,HSS7 Postbaseline Mean (SD),"400 mg TID, Week 5, Omalizumab-Naïve Population with Outlier Removed from Analysis",6.49 (5.14)
same,HSS7 % Change difference for rilzabrutinib vs.placebo LS Mean (95% CI),[16],−28.20 %
same,HSS7 % Change from baseline LS Mean (SE),[16],−52.27 (6.61) %
same,HSS7 Change difference for rilzabrutinib vs.placebo LS Mean (95% CI),[16],"−3.48 (−5.94, −1.02)"
same,HSS7 Change from baseline LS Mean (SE),[16],−7.75 (0.91)
same,HSS7 Postbaseline Mean (SD),[16],6.14 (5.55)
same,HSS7 % Change difference for rilzabrutinib vs.placebo LS Mean (95% CI),[17],−24.11 %
same,HSS7 % Change from baseline LS Mean (SE),[17],−48.15 (7.17) %
same,HSS7 Postbaseline Mean (SD),[17],6.78 (5.55)
same,HSS7 Postbaseline Mean (SD),"400 mg TID, Week 6, Omalizumab-Naïve Population with Outlier Removed from Analysis",6.78 (5.55)
same,HSS7 % Change difference for rilzabrutinib vs.placebo LS Mean (95% CI),[18],−27.16 %
same,HSS7 % Change from baseline LS Mean (SE),[18],−51.12 (6.01) %
same,HSS7 Change difference for rilzabrutinib vs.placebo LS Mean (95% CI),[18],"−3.58 (−5.87, −1.29)"
same,HSS7 Change from baseline LS Mean (SE),[18],−7.66 (0.86)
same,HSS7 Postbaseline Mean (SD),[18],6.18 (4.44)
same,HSS7 % Change difference for rilzabrutinib vs.placebo LS Mean (95% CI),[19],−24.63 %
same,HSS7 Postbaseline Mean (SD),[19],6.40 (4.54)
same,HSS7 Postbaseline Mean (SD),"400 mg TID, Week 7, Omalizumab-Naïve Population with Outlier Removed from Analysis",6.40 (4.54)
same,HSS7 % Change difference for rilzabrutinib vs.placebo LS Mean (95% CI),[20],−25.27 %
same,HSS7 % Change from baseline LS Mean (SE),[20],−54.34 (6.35) %
same,HSS7 Change difference for rilzabrutinib vs.placebo LS Mean (95% CI),[20],"−3.06 (−5.54, −0.58)"
same,HSS7 Change from baseline LS Mean (SE),[20],−7.81 (0.92)
same,HSS7 Postbaseline Mean (SD),[20],5.60 (4.81)
same,HSS7 % Change difference for rilzabrutinib vs.placebo LS Mean (95% CI),[21],−22.36 %
same,HSS7 % Change from baseline LS Mean (SE),[21],−50.37 (7.07) %
